Measurements taken from patent publication US20230285514A1, “STAPLED LACTAM CO-AGONISTS OF THE GLUCAGON AND GLP-1 RECEPTORS” (Merck Sharp & Dohme LLC, priority 2019, published 2023).
*1 amine or outer side, *2 acyl side, *3 side chain or, on linkers, in order; H or OH if unused. Where a SMILES comes first, the peptide text is derived from it. Bridges are numbered along the chain shown (N, C = ends). Side-chain parts run from the residue outwards. [ ]: non-standard residue; d: D form. The star is where a group is joined. γGlu = O=C(O)[C@H](CCC(=O)[*:2])N[*:1]; Palmitoyl = CCCCCCCCCCCCCCCC(=O)*; Nle = CCCC[C@H](N)C(=O)O; Aib = CC(C)(N)C(=O)O

Experiments:
human GCGR = target: T1, human GCGR (Homo sapiens, UniProt P47871); assay: cAMP activity assay, cells expressing human GCGR; format: cell-based; conditions: for hGCGR/hGLPIR (hTone): ratio of human GCGR EC50 to human GLP1R EC50
T1 construct: expressed in transfected cells
Method: (§1) Activity of the peptides at the Glucagon receptor (GCGR) and GLP-1 receptor (GLP1R) was measured in a cAMP activity assay. Peptides were dissolved in 100% DMSO and serially diluted to generate 10 point titrations. The peptide solutions were then transferred into 384-well assay plates (150 nL/well). Assay ready frozen cells expressing human GLP1R or human GCGR were suspended in growth media consisting of DMEM medium (GIBCO), 10% FBS (GIBCO), 1×NEAA(GIBCO), 1×P/S (GIBCO), 10 ug/ml Blasticidin (GIBCO) and 200 μg/mL Hygromycin (GIBCO). […] The cell suspensions (15 μL) were then added to the assay plates containing the peptide solutions (30,000 cells/well for human GCGR; 10,000 cells/well for human GLP1R). […] Production of cAMP was determined using […] kits (DiscoverX) following manufacturer protocol. The plates were incubated for overnight at room temperature in the dark. Luminescence was measured using an EnVision Multilabel plate reader (Perkin Elmer). Native GLP-1 and Glucagon (Bachem) are used as control peptides.

human GLP1R = target: T2, human GLP1R (Homo sapiens, UniProt P43220); assay: cAMP activity assay, cells expressing human GLP1R; format: cell-based; conditions: cAMP production, 1 hour, table does not say whether with or without 20% human serum, read-out: GLPIR EC50 human
T2 construct: expressed in transfected cells
Method: as §1

T1 sequence (P47871 26-477): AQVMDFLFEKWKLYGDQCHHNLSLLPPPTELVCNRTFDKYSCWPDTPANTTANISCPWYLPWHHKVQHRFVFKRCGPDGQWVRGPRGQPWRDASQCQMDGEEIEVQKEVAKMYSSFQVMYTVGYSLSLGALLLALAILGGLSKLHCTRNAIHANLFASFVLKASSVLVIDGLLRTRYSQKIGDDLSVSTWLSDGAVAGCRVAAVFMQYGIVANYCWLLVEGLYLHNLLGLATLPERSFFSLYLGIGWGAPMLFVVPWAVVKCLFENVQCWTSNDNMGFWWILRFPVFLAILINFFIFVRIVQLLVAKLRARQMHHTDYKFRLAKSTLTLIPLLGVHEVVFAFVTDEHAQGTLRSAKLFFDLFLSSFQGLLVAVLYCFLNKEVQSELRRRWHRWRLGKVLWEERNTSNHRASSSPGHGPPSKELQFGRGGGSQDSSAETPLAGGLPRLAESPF
T2 sequence (P43220 24-463): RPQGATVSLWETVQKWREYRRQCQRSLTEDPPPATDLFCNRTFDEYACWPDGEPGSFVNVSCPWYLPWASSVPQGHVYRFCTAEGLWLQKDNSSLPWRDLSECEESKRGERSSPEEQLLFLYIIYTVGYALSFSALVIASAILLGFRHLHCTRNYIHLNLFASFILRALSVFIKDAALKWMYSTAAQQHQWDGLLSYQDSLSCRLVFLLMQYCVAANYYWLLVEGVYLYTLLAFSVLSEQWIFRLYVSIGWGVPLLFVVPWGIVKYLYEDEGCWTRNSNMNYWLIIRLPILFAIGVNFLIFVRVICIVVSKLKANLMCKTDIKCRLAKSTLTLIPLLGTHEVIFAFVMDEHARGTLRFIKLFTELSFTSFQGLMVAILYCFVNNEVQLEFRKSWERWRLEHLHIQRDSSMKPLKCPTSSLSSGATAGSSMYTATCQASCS

hGCGR/hGLPIR (hTone) (human GCGR)	EC50 (human GLP1R) [nM]	EC50 (human GCGR; cAMP production, cells expressing human GCGR, 1 hour, table does not say whether with or without 20% human serum) [nM]	SMILES
0.84			CCCCCCCCCCCCCCCC(=O)N[C@@H](CCC(=O)N[C@@H](CCC(=O)NCCCC[C@H](NC(=O)[C@H](CC(=O)O)NC(=O)[C@H](CO)NC(=O)[C@@H](NC(=O)[C@H](Cc1ccccc1)NC(=O)[C@@H](NC(=O)CNC(=O)[C@H](CCC(N)=O)NC(=O)[C@@H](CO)NC(=O)[C@@H](N)Cc1c[nH]cn1)[C@@H](C)O)[C@@H](C)O)C(=O)N[C@@H](CO)C(=O)N[C@@H](CCCCN)C(=O)N[C@@H](Cc1ccc(O)cc1)C(=O)N[C@@H](CC(C)C)C(=O)N[C@@H](CC(=O)O)C(=O)N[C@@H](CCC(=O)O)C(=O)N[C@@H](CCCNC(=N)N)C(=O)N[C@@H](C)C(=O)N[C@@H](C)C(=O)N[C@H]1CCCCNC(=O)CC[C@@H](C(=O)N[C@@H](Cc2c[nH]c3ccccc23)C(=O)N[C@@H](CC(C)C)C(=O)N[C@@H](CC(C)C)C(=O)N[C@@H](CC(=O)O)C(=O)N[C@H](C(N)=O)[C@@H](C)O)NC(=O)[C@H](C(C)C)NC(=O)[C@H](Cc2ccccc2)NC(=O)[C@H](CC(=O)O)NC1=O)C(=O)O)C(=O)O [SEQ ID NO: 8] (H-H[dS]QGTFTSDK([γGlu-γGlu-Palmitoyl])SKYLDERAAKDFVEWLLDT-NH2; lactam 20-24; N-terminus assumed)
0.8			CCCCCCCCCCCCCCCC(=O)N[C@@H](CCC(=O)N[C@@H](CCC(=O)NCCCC[C@H](NC(=O)[C@H](CC(=O)O)NC(=O)[C@H](CO)NC(=O)[C@@H](NC(=O)[C@H](Cc1ccccc1)NC(=O)[C@@H](NC(=O)CNC(=O)[C@H](CCC(N)=O)NC(=O)[C@@H](CO)NC(=O)[C@@H](N)Cc1c[nH]cn1)[C@@H](C)O)[C@@H](C)O)C(=O)N[C@@H](CO)C(=O)N[C@@H](CCCCN)C(=O)N[C@@H](Cc1ccc(O)cc1)C(=O)N[C@@H](CC(C)C)C(=O)N[C@@H](CC(=O)O)C(=O)N[C@H]1CCCCNC(=O)CC[C@@H](C(=O)N[C@@H](CC(=O)O)C(=O)N[C@@H](Cc2ccccc2)C(=O)N[C@H](C(=O)N[C@@H](CCC(N)=O)C(=O)N[C@@H](Cc2c[nH]c3ccccc23)C(=O)N[C@@H](CC(C)C)C(=O)N[C@@H](CC(C)C)C(=O)N[C@@H](CC(=O)O)C(=O)N[C@H](C(N)=O)[C@@H](C)O)C(C)C)NC(=O)[C@H](C)NC(=O)[C@H](C)NC(=O)[C@H](CCCNC(=N)N)NC1=O)C(=O)O)C(=O)O [SEQ ID NO: 10] (H-H[dS]QGTFTSDK([γGlu-γGlu-Palmitoyl])SKYLDKRAAEDFVQWLLDT-NH2; lactam 16-20; N-terminus assumed)
0.6	0.17		CCCCCCCCCCCCCCCC(=O)N[C@@H](CCC(=O)N[C@@H](CCC(=O)NCCCC[C@H](NC(=O)[C@H](CC(=O)O)NC(=O)[C@H](CO)NC(=O)[C@@H](NC(=O)[C@H](Cc1ccccc1)NC(=O)[C@@H](NC(=O)CNC(=O)[C@H](CCC(N)=O)NC(=O)[C@@H](CO)NC(=O)[C@@H](N)Cc1c[nH]cn1)[C@@H](C)O)[C@@H](C)O)C(=O)N[C@@H](CO)C(=O)N[C@@H](CCCCN)C(=O)N[C@@H](Cc1ccc(O)cc1)C(=O)N[C@@H](CC(C)C)C(=O)N[C@@H](CC(=O)O)C(=O)N[C@@H](C)C(=O)N[C@@H](CCCNC(=N)N)C(=O)N[C@@H](C)C(=O)N[C@@H](C)C(=O)N[C@H]1CCCCNC(=O)CC[C@@H](C(=O)N[C@@H](Cc2c[nH]c3ccccc23)C(=O)N[C@@H](CC(C)C)C(=O)N[C@@H](CC(C)C)C(=O)N[C@@H](CC(=O)O)C(=O)N[C@H](C(N)=O)[C@@H](C)O)NC(=O)[C@H](C(C)C)NC(=O)[C@H](Cc2ccccc2)NC(=O)[C@H](CC(=O)O)NC1=O)C(=O)O)C(=O)O [SEQ ID NO: 11]
0.8		0.06	CCCCCCCCCCCCCCCC(=O)N[C@@H](CCC(=O)N[C@@H](CCC(=O)NCCCC[C@H](NC(=O)[C@H](CC(=O)O)NC(=O)[C@H](CO)NC(=O)[C@@H](NC(=O)[C@H](Cc1ccccc1)NC(=O)[C@@H](NC(=O)CNC(=O)[C@H](CCC(N)=O)NC(=O)[C@@H](CO)NC(=O)[C@@H](N)Cc1c[nH]cn1)[C@@H](C)O)[C@@H](C)O)C(=O)N[C@@H](CO)C(=O)N[C@@H](CCCCN)C(=O)N[C@@H](Cc1ccc(O)cc1)C(=O)N[C@@H](CC(C)C)C(=O)N[C@@H](CC(=O)O)C(=O)N[C@@H](C)C(=O)N[C@H]1CCCCNC(=O)CC[C@@H](C(=O)N[C@@H](Cc2ccccc2)C(=O)N[C@H](C(=O)N[C@@H](CCC(N)=O)C(=O)N[C@@H](Cc2c[nH]c3ccccc23)C(=O)N[C@@H](CC(C)C)C(=O)N[C@@H](CC(C)C)C(=O)N[C@@H](CC(=O)O)C(=O)N[C@H](C(N)=O)[C@@H](C)O)C(C)C)NC(=O)[C@H](CCC(N)=O)NC(=O)[C@H](C)NC(=O)[C@H](C)NC1=O)C(=O)O)C(=O)O [SEQ ID NO: 12]
0.56			CCCCCCCCCCCCCCCC(=O)N[C@@H](CCC(=O)N[C@@H](CCC(=O)NCCCC[C@H](NC(=O)[C@H](CC(=O)O)NC(=O)[C@H](CO)NC(=O)[C@@H](NC(=O)[C@H](Cc1ccccc1)NC(=O)[C@@H](NC(=O)CNC(=O)[C@H](CCC(N)=O)NC(=O)[C@@H](CO)NC(=O)[C@@H](N)Cc1c[nH]cn1)[C@@H](C)O)[C@@H](C)O)C(=O)N[C@@H](CO)C(=O)N[C@@H](CCCCN)C(=O)N[C@@H](Cc1ccc(O)cc1)C(=O)N[C@@H](CC(C)C)C(=O)N[C@@H](CC(=O)O)C(=O)N[C@@H](C)C(=O)N[C@@H](CCCNC(=N)N)C(=O)N[C@@H](C)C(=O)N[C@@H](C)C(=O)N[C@@H](CCC(N)=O)C(=O)N[C@@H](CC(=O)O)C(=O)N[C@@H](Cc1ccccc1)C(=O)N[C@H](C(=O)N[C@H]1CCCCNC(=O)CC[C@@H](C(=O)N[C@H](C(N)=O)[C@@H](C)O)NC(=O)[C@H](CC(C)C)NC(=O)[C@H](CC(C)C)NC(=O)[C@H](Cc2c[nH]c3ccccc23)NC1=O)C(C)C)C(=O)O)C(=O)O [SEQ ID NO: 13] (H-H[dS]QGTFTSDK([γGlu-γGlu-Palmitoyl])SKYLDARAAQDFVKWLLET-NH2; lactam 24-28; N-terminus assumed)
1.41			CCCCCCCCCCCCCCCC(=O)N[C@@H](CCC(=O)N[C@@H](CCC(=O)NCCCC[C@H](NC(=O)[C@H](CC(=O)O)NC(=O)[C@H](CO)NC(=O)[C@@H](NC(=O)[C@H](Cc1ccccc1)NC(=O)[C@@H](NC(=O)CNC(=O)[C@H](CCC(N)=O)NC(=O)C(C)(C)NC(=O)[C@@H](N)Cc1c[nH]cn1)[C@@H](C)O)[C@@H](C)O)C(=O)N[C@@H](CO)C(=O)N[C@@H](CCCCN)C(=O)N[C@@H](Cc1ccc(O)cc1)C(=O)N[C@@H](CC(C)C)C(=O)N[C@@H](CC(=O)O)C(=O)N[C@H]1CCCCNC(=O)CC[C@@H](C(=O)N[C@@H](CC(=O)O)C(=O)N[C@@H](Cc2ccccc2)C(=O)N[C@H](C(=O)N[C@@H](CCC(N)=O)C(=O)N[C@@H](Cc2c[nH]c3ccccc23)C(=O)N[C@@H](CC(C)C)C(=O)N[C@@H](CCCC)C(=O)N[C@@H](CC(=O)O)C(=O)N[C@H](C(N)=O)[C@@H](C)O)C(C)C)NC(=O)[C@H](C)NC(=O)[C@H](C)NC(=O)[C@H](CCCNC(=N)N)NC1=O)C(=O)O)C(=O)O [SEQ ID NO: 14] (H-H[Aib]QGTFTSDK([γGlu-γGlu-Palmitoyl])SKYLDKRAAEDFVQWL[Nle]DT-NH2; lactam 16-20; N-terminus assumed)
2.61			CCCCCCCCCCCCCCCC(=O)N[C@@H](CCC(=O)N[C@@H](CCC(=O)NCCCC[C@H](NC(=O)[C@H](CC(=O)O)NC(=O)[C@H](CO)NC(=O)[C@@H](NC(=O)[C@H](Cc1ccccc1)NC(=O)[C@@H](NC(=O)CNC(=O)[C@H](CCC(N)=O)NC(=O)C(C)(C)NC(=O)[C@@H](N)Cc1c[nH]cn1)[C@@H](C)O)[C@@H](C)O)C(=O)N[C@@H](CO)C(=O)N[C@@H](CCCCN)C(=O)N[C@@H](Cc1ccc(O)cc1)C(=O)N[C@@H](CC(C)C)C(=O)N[C@@H](CC(=O)O)C(=O)NC(C)(C)C(=O)N[C@@H](CCCNC(=N)N)C(=O)N[C@@H](C)C(=O)N[C@@H](C)C(=O)N[C@H]1CCCCNC(=O)CC[C@@H](C(=O)N[C@@H](Cc2c[nH]c3ccccc23)C(=O)N[C@@H](CC(C)C)C(=O)N[C@@H](CCCC)C(=O)N[C@@H](CC(=O)O)C(=O)N[C@H](C(N)=O)[C@@H](C)O)NC(=O)[C@H](C(C)C)NC(=O)[C@H](Cc2ccccc2)NC(=O)[C@H](CC(=O)O)NC1=O)C(=O)O)C(=O)O [SEQ ID NO: 15] (H-H[Aib]QGTFTSDK([γGlu-γGlu-Palmitoyl])SKYLD[Aib]RAAKDFVEWL[Nle]DT-NH2; lactam 20-24; N-terminus assumed)
1.05			CCCCCCCCCCCCCCCC(=O)N[C@@H](CCC(=O)N[C@@H](CCC(=O)NCCCC[C@H](NC(=O)[C@H](CC(=O)O)NC(=O)[C@H](CO)NC(=O)[C@@H](NC(=O)[C@H](Cc1ccccc1)NC(=O)[C@@H](NC(=O)CNC(=O)[C@H](CCC(N)=O)NC(=O)C(C)(C)NC(=O)[C@@H](N)Cc1c[nH]cn1)[C@@H](C)O)[C@@H](C)O)C(=O)N[C@@H](CO)C(=O)N[C@@H](CCCCN)C(=O)N[C@@H](Cc1ccc(O)cc1)C(=O)N[C@@H](CC(C)C)C(=O)N[C@@H](CC(=O)O)C(=O)NC(C)(C)C(=O)N[C@@H](CCCNC(=N)N)C(=O)N[C@@H](C)C(=O)N[C@@H](C)C(=O)N[C@@H](CCC(N)=O)C(=O)N[C@@H](CC(=O)O)C(=O)N[C@@H](Cc1ccccc1)C(=O)N[C@H](C(=O)N[C@H]1CCCCNC(=O)CC[C@@H](C(=O)N[C@H](C(N)=O)[C@@H](C)O)NC(=O)[C@H](CCCC)NC(=O)[C@H](CC(C)C)NC(=O)[C@H](Cc2c[nH]c3ccccc23)NC1=O)C(C)C)C(=O)O)C(=O)O [SEQ ID NO: 17] (H-H[Aib]QGTFTSDK([γGlu-γGlu-Palmitoyl])SKYLD[Aib]RAAQDFVKWL[Nle]ET-NH2; lactam 24-28; N-terminus assumed)
